Assay results taken from the supplement of paper PMC10307832.

Columns and labels:
Assay in all cases: relative viability (nuclei count vs DMSO), 5 days (fraction); higher = more cells survive
[1] = compound: CC1=CC=C(C=C1)C(=O)CN2C3=C(CCCC3)SC2=N [Pifithrin_alpha] + C[C@]1(O)C[C@@H](c2nc(-c3ccc4ccc(-c5ccccc5)nc4c3)c3c(N)nccn32)C1 [Linsitinib] (partner 1 µM)
Method in brief: (§1)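 Relative viability was taken as the ratio of nuclei in treated wells to nuclei in vehicle wells. Lung cancer cell lines in 1536-well plates received compounds by pin tool one day after seeding, either one drug alone or a fixed anchor-drug dose plus five library-drug doses (not always all listed) in √10 steps. Nuclei were counted on 4× images after 5 days of treatment, and values are medians of duplicate plates.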

[2] = compound: CC1=CC=C(C=C1)C(=O)CN2C3=C(CCCC3)SC2=N [Pifithrin_alpha] + CC(C)C[C@H](NC(=O)[C@H](Cc1ccccc1)NC(=O)c1cnccn1)B(O)O [Bortezomib] (partner 0.002 µM)
Method in brief: as §1

[3] = compound: CC1=CC=C(C=C1)C(=O)CN2C3=C(CCCC3)SC2=N [Pifithrin_alpha] + N=C(N)NC(=N)NCCc1ccccc1 [Phenformin] (partner 250 µM)
Method in brief: as §1

Bemcentinib + Dasatinib = compound: Nc1nc(Nc2ccc3c(c2)CC[C@@H](N2CCCC2)CC3)nn1-c1cc2c(nn1)-c1ccccc1CCC2 [Bemcentinib] + Cc1nc(Nc2ncc(C(=O)Nc3c(C)cccc3Cl)s2)cc(N2CCN(CCO)CC2)n1 [Dasatinib] (partner 0.075 µM)
Method in brief: as §1

| Cell Line | relative viability ([1]; first compound 1 µM) | relative viability ([1]; first compound 3.162 µM) | relative viability ([1]; first compound 10 µM) | relative viability ([1]; first compound 31.62 µM) | relative viability ([1]; first compound 100 µM) | relative viability ([2]; first compound 1 µM) | relative viability ([2]; first compound 3.162 µM) | relative viability ([2]; first compound 10 µM) | relative viability ([2]; first compound 31.62 µM) | relative viability ([2]; first compound 100 µM) | relative viability ([3]; first compound 1 µM) | relative viability ([3]; first compound 3.162 µM) | relative viability ([3]; first compound 10 µM) | relative viability ([3]; first compound 31.62 µM) | relative viability ([3]; first compound 100 µM) | relative viability (Bemcentinib + Dasatinib; first compound 0.04 µM) | relative viability (Bemcentinib + Dasatinib; first compound 0.1265 µM) | relative viability (Bemcentinib + Dasatinib; first compound 0.4 µM) | relative viability (Bemcentinib + Dasatinib; first compound 1.265 µM) | relative viability (Bemcentinib + Dasatinib; first compound 4 µM) |
| --- | --- | --- | --- | --- | --- | --- | --- | --- | --- | --- | --- | --- | --- | --- | --- | --- | --- | --- | --- | --- |
| UMC-11 | 1.16 | 1.01 | 1.1 | 0.913 | 1.49 | 0.818 | 0.803 | 0.759 | 0.574 | 1.05 | 0.312 | 0.337 | 0.322 | 0.287 | 0.303 | 0.462 | 0.563 | 0.559 | 0.466 | 0.476 |
| PC-3 [JPC-3] | 0.964 | 0.947 | 0.862 | 0.853 | 0.923 | 0.819 | 0.877 | 0.77 | 0.583 | 0.613 | 0.497 | 0.482 | 0.409 | 0.47 | 0.488 | 1.04 | 0.589 | 1.19 | 1.01 | 1.08 |
| LU99A | 0.539 | 0.64 | 0.619 | – | 0.529 | 1.09 | 1.24 | 1.19 | – | 1.24 | 0.817 | 0.809 | 0.904 | 0.406 | 0.763 | 0.489 | 0.568 | 0.519 | 0.661 | 0.573 |
| CAL-12T | 0.877 | 0.702 | 0.819 | 0.718 | 0.702 | 0.962 | 1.09 | 1.02 | 0.666 | 0.809 | 0.604 | 0.558 | 0.533 | – | 0.457 | 0.366 | 0.356 | 0.398 | 0.45 | 0.555 |
| NCI-H2087 | 0.765 | 1.03 | 0.966 | 0.776 | 0.778 | 0.733 | 0.768 | 0.941 | 0.489 | 1.02 | 0.356 | 0.488 | 0.485 | – | 0.451 | 0.797 | 1.02 | 0.949 | 0.901 | 0.929 |
| LCLC-97TM1 | – | 0.207 | 0.206 | – | 0.225 | – | 0.596 | 0.397 | – | 0.487 | 0.46 | 0.479 | 0.459 | 0.435 | 0.475 | 0.851 | 0.818 | 0.736 | 0.851 | 0.975 |
| BEN | 0.991 | 1.11 | 1.01 | 0.929 | 1.29 | 0.47 | 0.884 | 0.914 | 0.728 | 1.04 | 0.296 | 0.595 | 0.276 | 0.246 | 0.289 | 0.272 | 0.37 | 0.317 | 0.22 | 0.241 |
| NCI-H727 | 0.295 | 0.312 | 0.271 | 0.293 | 0.217 | 0.786 | 0.958 | 0.696 | 0.446 | 0.793 | 0.604 | 0.572 | 0.538 | – | 0.501 | 0.394 | 0.4 | 0.319 | 0.337 | 0.441 |
| NCI-H1915 | 1.01 | 1.08 | 1.08 | – | 1.14 | 0.947 | 1.15 | 0.904 | – | 1.35 | 0.385 | 0.424 | – | – | 0.435 | 0.304 | 0.302 | 0.307 | 0.332 | 0.331 |
| HARA | 0.988 | 1.02 | 0.9 | 0.542 | 0.857 | 1.25 | 1.13 | 1.2 | 0.878 | 1.26 | – | 0.441 | 0.409 | – | 0.407 | 0.124 | 0.27 | 0.253 | 0.221 | 0.21 |
| EMC-BAC-2 | 0.799 | 0.859 | 0.765 | 0.745 | 0.927 | 1.07 | 1.09 | 0.99 | 0.8 | 1.15 | 0.504 | 0.511 | 0.478 | – | 0.556 | 0.349 | 0.323 | 0.342 | 0.29 | 0.336 |
| LOU-NH91 | 0.789 | 0.849 | 0.828 | 0.753 | 0.846 | 0.409 | 0.475 | 0.445 | 0.414 | 0.503 | 0.514 | 0.647 | 0.689 | 0.665 | 0.627 | 0.508 | 0.568 | 0.59 | 0.335 | 0.61 |
| NCI-H3122 | 1.07 | 1.06 | 1.03 | 0.879 | 1.08 | 1.03 | 0.99 | 1.05 | 0.904 | 1 | 0.376 | 0.356 | 0.327 | – | 0.283 | – | 0.751 | 0.768 | 0.888 | 0.933 |
| NCI-H1975 | 0.948 | 0.707 | 0.643 | 0.733 | 0.523 | 0.34 | 0.306 | 0.305 | 0.335 | 0.271 | 0.394 | 0.38 | 0.373 | 0.337 | 0.364 | 0.344 | 0.424 | 0.432 | 0.386 | 0.354 |
| NCI-H661 | 0.669 | 0.616 | 0.565 | 0.68 | 0.598 | 0.784 | 0.82 | 0.909 | 0.925 | 1.02 | 0.24 | 0.29 | 0.292 | 0.308 | 0.282 | 0.77 | 0.877 | 0.924 | 0.832 | 0.913 |
| NCI-H1651 | 0.997 | 1.13 | 0.892 | 0.709 | 1.02 | 0.857 | 0.929 | 0.916 | 0.88 | 1.02 | 0.345 | 0.351 | 0.387 | 0.26 | 0.317 | 0.393 | 0.381 | 0.484 | 0.41 | 0.498 |
| NCI-H647 | 1.27 | 1.2 | 1.02 | – | 0.748 | 0.992 | 0.966 | 0.706 | – | 0.736 | 0.58 | 0.674 | 0.548 | 0.299 | 0.4 | 0.169 | 0.213 | 0.211 | 0.186 | 0.136 |
